Assay results taken from US20250320206A1, “STAT6 DEGRADERS” (Gilead Sciences, Inc., priority 2024, published 2025).

Legend:
[1] = system: Eotaxin-3 release in human whole blood stimulated with IL-4; assay: Human Whole Blood Eotaxin-3 Assay (IL-4 stimulated eotaxin-3 release); format: cell-based; details: IL-4 stimulation, 48 h, values given for compounds with >80% Emax, geometric mean
Method in brief: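 Eotaxin-3 (CCL26) release measured by MSD kit in plasma supernatant after 48 h IL-4 stimulation ([…]) of human whole blood. Compounds added in triplicate 4-fold dilutions 2 h before stimulation; 0.5% DMSO final, 37° C, 5% CO2.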

STAT6 = molecular target: T1, STAT6 (Homo sapiens, UniProt P42226); assay: Stat6 Degrader Assay (HiBiT based, HeLa LgBiT clone 4.14); format: cell-based; details: HeLa LgBiT clone 4.14 HiBiT-STAT6, 4-24 h incubation; for DC50: values given for compounds with >80% Emax, geometric mean, read-out: STAT6 degradation DC50
T1 construct: These cells express endogenous STAT6; host or cells: HeLa LgBiT clone 4.14
T1 sequence (P42226 1-847): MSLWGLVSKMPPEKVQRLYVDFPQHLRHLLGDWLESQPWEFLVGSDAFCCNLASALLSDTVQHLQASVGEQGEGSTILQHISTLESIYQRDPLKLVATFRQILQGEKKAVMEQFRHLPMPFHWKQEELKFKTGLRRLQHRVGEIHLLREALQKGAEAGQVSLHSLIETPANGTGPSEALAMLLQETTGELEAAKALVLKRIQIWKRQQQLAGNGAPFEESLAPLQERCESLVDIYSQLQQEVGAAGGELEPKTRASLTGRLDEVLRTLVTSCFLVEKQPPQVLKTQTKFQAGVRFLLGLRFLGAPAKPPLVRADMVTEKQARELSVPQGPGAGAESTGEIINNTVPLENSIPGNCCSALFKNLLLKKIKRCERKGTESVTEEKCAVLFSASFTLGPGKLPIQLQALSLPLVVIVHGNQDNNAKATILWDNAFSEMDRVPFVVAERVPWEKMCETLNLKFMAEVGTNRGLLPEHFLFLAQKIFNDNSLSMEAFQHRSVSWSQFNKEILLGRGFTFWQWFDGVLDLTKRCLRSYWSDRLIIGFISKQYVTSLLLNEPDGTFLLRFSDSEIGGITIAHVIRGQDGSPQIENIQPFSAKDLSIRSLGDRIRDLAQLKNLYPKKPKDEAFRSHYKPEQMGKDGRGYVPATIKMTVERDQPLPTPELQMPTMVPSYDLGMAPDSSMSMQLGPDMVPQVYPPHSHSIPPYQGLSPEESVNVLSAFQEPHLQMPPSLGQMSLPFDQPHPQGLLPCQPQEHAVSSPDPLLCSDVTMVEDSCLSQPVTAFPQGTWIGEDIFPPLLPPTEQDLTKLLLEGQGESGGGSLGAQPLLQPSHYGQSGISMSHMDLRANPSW
Method in brief: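 Luminescence from HiBiT-STAT6 complementing stably expressed LgBiT in HeLa clone 4.14 reports remaining STAT6 protein. Cells (5000/well) exposed to compound for 4-24 h at 37° C; read 0.5 h after Nano-Glo addition. 100% degradation window set with 50 μM terfenadine; percent degradation plotted against concentration.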

| SMILES | EC50 [1] | DC50 (STAT6) | Emax (STAT6; read-out: STAT6 degradation Emax) |
| --- | --- | --- | --- |
| CNc1ccn(-c2ccnc3c2cc([C@H](C)N2CC=C(c4c(C)cc(C(=O)N5CCn6nc(CN7CCC(c8ccc9c(c8)n(C8CC8)c(=O)n9C8CCC(=O)NC8=O)CC7)cc6C5)cc4F)CC2)n3C)c(=O)c1 (stereo partly drawn) [Example 3u254, 3-(3-cyclopropyl-5-(1-((5-(3-fluoro-5-methyl-4-(1-((S)-1-(1-methyl-4-(4-(methylamino)-2-oxopyridin-1 (2H)-yl)-1H-pyrrolo[2,3-b]pyridin-2-yl)ethyl)-1,2,3,6-tetrahydropyridin-4-yl)benzoyl)-4,5,6,7-tetrahydropyrazolo[1,5-a]pyrazin-2-yl)methyl)piperidin-4-yl)-2-oxo-2,3-dihydro-1H-benzo[d]imidazol-1-yl)piperidine-2,6-dione] | 0.2 nM | 0.4 nM |  |
| CNc1ccn(-c2ccnc3c2cc([C@H](C)N2CC=C(c4c(C)cc(C(=O)N5CCC(CN6CCN(c7cc8c(cc7F)n(C7CCC(=O)NC7=O)c(=O)n8C)CC6)CC5)cc4F)CC2)n3C)c(=O)n1 (stereo partly drawn) [Example 3u256, 3-(6-fluoro-5-(4-((1-(3-fluoro-5-methyl-4-(1-((S)-1-(1-methyl-4-(4-(methylamino)-2-oxopyrimidin-1 (2H)-yl)-1H-pyrrolo[2,3-b]pyridin-2-yl)ethyl)-1,2,3,6-tetrahydropyridin-4-yl)benzoyl)piperidin-4-yl)methyl)piperazin-1-yl)-3-methyl-2-oxo-2,3-dihydro-1H-benzo[d]imidazol-1-yl)piperidine-2,6-dione] | 0.8 nM | 2.5 nM |  |
| CNc1cc(=O)n(-c2ccnc3c2cc([C@H](C)N2CC=C(c4c(C)cc(C(=O)N5CCC(CN6CCN(c7ccc8c(c7)C7(CC7)C(=O)N8C7CCC(=O)NC7=O)C[C@H]6C)CC5)cc4F)CC2)n3C)cc1F (stereo partly drawn) [Example 3u295, 3-(5′-((R)-4-((1-(3-fluoro-4-(1-((S)-1-(4-(5-fluoro-4-(methylamino)-2-oxopyridin-1 (2H)-yl)-1-methyl-1H-pyrrolo[2,3-b]pyridin-2-yl)ethyl)-1,2,3,6-tetrahydropyridin-4-yl)-5-methylbenzoyl)piperidin-4-yl)methyl)-3-methylpiperazin-1-yl)-2′-oxospiro[cyclopropane-1,3′-indolin]-1′-yl)piperidine-2,6-dione] | 18.9 nM | 4.5 nM |  |
| CNc1cc(=O)n(-c2ccnc3c2cc([C@H](C)N2CC=C(c4c(C)cc(C(=O)N5CCC(CN6CCN(c7ccc8c(c7)n(C)c(=O)n8C7CCC(=O)NC7=O)CC6)CC5)cc4F)CC2)n3C)cc1F (stereo partly drawn) [Example 3u298, 3-(5-(4-((1-(3-fluoro-4-(1-((S)-1-(4-(5-fluoro-4-(methylamino)-2-oxopyridin-1 (2H)-yl)-1-methyl-1H-pyrrolo[2,3-b]pyridin-2-yl)ethyl)-1,2,3,6-tetrahydropyridin-4-yl)-5-methylbenzoyl)-piperidin-4-yl)methyl)piperazin-1-yl)-3-methyl-2-oxo-2,3-dihydro-1H-benzo[d]imidazol-1-yl)-piperidine-2,6-dione] | 2.6 nM | 1.8 nM |  |
| CNc1ccn(-c2ccnc3c2cc([C@H](C)N2CC=C(c4c(C)cc(C(=O)N5CCC(CN6CCN(c7ccc8c(c7)n(C)c(=O)n8C7CCC(=O)NC7=O)CC6)CC5)cc4F)CC2)n3C)c(=O)c1 (stereo partly drawn) [Example 3u299, 3-(5-(4-((1-(3-fluoro-5-methyl-4-(1-((S)-1-(1-methyl-4-(4-(methylamino)-2-oxopyridin-1 (2H)-yl)-1H-pyrrolo[2,3-b]pyridin-2-yl)ethyl)-1,2,3,6-tetrahydropyridin-4-yl)benzoyl)piperidin-4-yl)methyl)piperazin-1-yl)-3-methyl-2-oxo-2,3-dihydro-1H-benzo[d]imidazol-1-yl)piperidine-2,6-dione] | 0.5 nM | 0.9 nM |  |
| CNc1cc(=O)n(-c2ccnc3c2cc([C@H](C)N2CC=C(c4c(F)cc(C(=O)N5CCC(CN6CCN(c7ccc8c(c7)C7(CC7)C(=O)N8C7CCC(=O)NC7=O)CC6)CC5)cc4F)CC2)n3C)cc1F (stereo partly drawn) [Example 3u300, 3-(5′-(4-((1-(3,5-difluoro-4-(1-((S)-1-(4-(5-fluoro-4-(methylamino)-2-oxopyridin-1 (2H)-yl)-1-methyl-1H-pyrrolo[2,3-b]pyridin-2-yl)ethyl)-1,2,3,6-tetrahydropyridin-4-yl)benzoyl)-piperidin-4-yl)methyl)piperazin-1-yl)-2′-oxospiro[cyclopropane-1,3′-indolin]-1′-yl)piperidine-2,6-dione] | 24.1 nM | 13 nM |  |
| CNc1cc(=O)n(-c2ccnc3c2cc(CN2CCC(c4c(F)cc(C(=O)N5CCC(CN6CCN(c7ccc8c(c7)C7(CC7)C(=O)N8C7CCC(=O)NC7=O)CC6)CC5)cc4F)CC2)n3C)cc1F (stereo not shown) [Example 3u301, 3-(5′-(4-((1-(3,5-difluoro-4-(1-((4-(5-fluoro-4-(methylamino)-2-oxopyridin-1 (2H)-yl)-1-methyl-1H-pyrrolo[2,3-b]pyridin-2-yl)methyl)piperidin-4-yl)benzoyl)piperidin-4-yl)methyl)-piperazin-1-yl)-2′-oxospiro[cyclopropane-1,3′-indolin]-1′-yl)piperidine-2,6-dione] | 90.5 nM |  | 20 to 30% |

More lines, in order of falling EC50 [1], values ahead:

| EC50 [1] | DC50 (STAT6) | Emax (STAT6; read-out: STAT6 degradation Emax) | SMILES |
| --- | --- | --- | --- |
| 24 nM | 22.6 nM |  | CNc1cc(=O)n(-c2ccnc3c2cc([C@H](C)N2CC=C(c4c(C)cc(C(=O)N5CCC(CC6CCN(c7ccc8c(c7)C7(CC7)C(=O)N8C7CCC(=O)NC7=O)CC6)CC5)cc4F)CC2)n3C)cc1F (stereo partly drawn) [Example 3u284, 3-(5′-(4-((1-(3-fluoro-4-(1-((S)-1-(4-(5-fluoro-4-(methylamino)-2-oxopyridin-1 (2H)-yl)-1-methyl-1H-pyrrolo[2,3-b]pyridin-2-yl)ethyl)-1,2,3,6-tetrahydropyridin-4-yl)-5-methylbenzoyl)piperidin-4-yl)methyl)piperidin-1-yl)-2′-oxospiro[cyclopropane-1,3′-indolin]-1′-yl)piperidine-2,6-dione] |
| 7 nM | 3.1 nM |  | CNc1cc(=O)n(-c2ccnc3c2cc([C@H](C)N2CC=C(c4c(C)cc(C(=O)N5CCC(CN6CCN(Cc7ccc8c(c7)C7(CCC7)C(=O)N8C7CCC(=O)NC7=O)CC6)CC5)cc4F)CC2)n3C)cc1F (stereo partly drawn) [Example 3u258, 3-(5′-((4-((1-(3-fluoro-4-(1-((S)-1-(4-(5-fluoro-4-(methylamino)-2-oxopyridin-1 (2H)-yl)-1-methyl-1H-pyrrolo[2,3-b]pyridin-2-yl)ethyl)-1,2,3,6-tetrahydropyridin-4-yl)-5-methylbenzoyl)piperidin-4-yl)methyl)piperazin-1-yl)methyl)-2′-oxospiro[cyclobutane-1,3′-indolin]-1′-yl)piperidine-2,6-dione] |
| 2.9 nM | 2.7 nM |  | CNc1ccn(-c2ccnc3c2cc([C@H](C)N2CC=C(c4c(C)cc(C(=O)N5CCC(CN6CCN(c7ccc8c(c7)n(C7CC7)c(=O)n8C7CCC(=O)NC7=O)CC6)CC5)cc4F)CC2)n3C)c(=O)c1 (stereo partly drawn) [Example 3u287, 3-(3-cyclopropyl-5-(4-((1-(3-fluoro-5-methyl-4-(1-((S)-1-(1-methyl-4-(4-(methyl-amino)-2-oxopyridin-1 (2H)-yl)-1H-pyrrolo[2,3-b]pyridin-2-yl)ethyl)-1,2,3,6-tetrahydropyridin-4-yl)benzoyl)piperidin-4-yl)methyl)piperazin-1-yl)-2-oxo-2,3-dihydro-1H-benzo[d]imidazol-1-yl)-piperidine-2,6-dione] |
| 0.9 nM | 0.2 nM |  | CN(C(=O)c1cc(F)c(C2CCN(Cc3cc4c(-n5ccc6c(c5=O)CCN6)ccnc4n3C)CC2)c(F)c1)c1ccc(C2CCN(Cc3ccc4c(c3)n(C)c(=O)n4C3CCC(=O)NC3=O)CC2)cc1 (stereo not shown) [Example 3u251, N-(4-(1-((1-(2,6-dioxopiperidin-3-yl)-3-methyl-2-oxo-2,3-dihydro-1H-benzo[d]-imidazol-5-yl)methyl)piperidin-4-yl)phenyl)-3,5-difluoro-N-methyl-4-(1-((1-methyl-4-(4-oxo-1,2,3,4-tetrahydro-5H-pyrrolo[3,2-c]pyridin-5-yl)-1H-pyrrolo[2,3-b]pyridin-2-yl)methyl)piperidin-4-yl)-benzamide] |
